Laboratory results: ChEMBL document CHEMBL1123199, “Synthesis and structure-activity relationships of naftifine-related allylamine antimycotics” (1986)
In brackets after ≈: the same amount, converted by molar mass.

Tests used:
[1] = system: Aspergillus fumigatus; assay: Antifungal activity measured against Aspergillus fumigatus; format: functional
[2] = system: Candida parapsilosis; assay: Antifungal activity against Candida parapsilosis.; format: functional; settings: Lodderomyces parapsilosis
[3] = system: Epidermophyton floccosum; assay: Antifungal activity against Epidermophyton floccosum.; format: functional
[4] = system: Cavia porcellus; assay: In vivo antifungal activity by topical treatment of guinea pig dermatophytosis caused by Trichophyton mentagrophytes at a dose of 0.5%; format: functional
[5] = system: Cavia porcellus; assay: In vivo antifungal activity by topical treatment of guinea pig dermatophytosis caused by Trichophyton mentagrophytes at a dose of 2%; format: functional
[6] = system: Microsporum canis; assay: Antifungal activity against Microsporum canis; format: functional
[7] = system: Sporothrix schenckii; assay: Antifungal activity measured against Sporothrix schenck ii.; format: functional
[8] = Antifungal activity against Trichophyton mentagrophytes.; format: functional, Arthroderma benhamiae; settings: Trichophyton benhamiae
[9] = system: Cavia porcellus; assay: In vivo antifungal activity (% cure) was determined by topical treatment of guinea pig dermatophytosis caused by Trichophyton mentagrophytes at a dose of […]; format: functional
[10] = system: Trichophyton benhamiae; assay: Antifungal activity measured against Trichophyton mentagrophytes; format: functional, Arthroderma benhamiae
[11] = system: Cavia porcellus; assay: In vivo antifungal activity by topical treatment of guinea pig dermatophytosis caused by Trichophyton mentagrophytes at a dose of 0.1%; format: functional
[12] = system: Trichophyton quinckeanum; assay: Antifungal activity was measured against Trichophyton mentagrophytes.; format: functional, ptrichophyton mentagrophytes
[13] = system: Cavia porcellus; assay: In vivo antifungal activity (% cure) was determined by topical treatment of guinea pig dermatophytosis caused by Trichophyton mentagrophytes at a dose of 0.5%; format: functional
[14] = system: Cavia porcellus; assay: In vivo antifungal activity (% cure) was determined by topical treatment of guinea pig dermatophytosis caused by Trichophyton mentagrophytes at a dose of 2%; format: functional

Structure (SMILES)	MIC [1] [µg/mL]	MIC [2] [µg/mL]	MIC [3] [µg/mL]	Activity [4] [%]	Activity [5] [%]	MIC [6] [µg/mL]	MIC [7] [µg/mL]	MIC [8] [µg/mL]	Activity [9] [%]	MIC [10] [µg/mL]	Activity [11] [%]	MIC [12] [µg/mL]	Activity [13] [%]	Activity [14] [%]
COc1ccc(CN(C)C/C=C/c2ccccc2)c2ccccc12	> 100	50 (≈ 158 µM)	≤ 1.6	41	65	≤ 1.6	50 (≈ 158 µM)	≤ 1.6	–	–	–	–	–	–
CN(C/C=C/c1ccccc1)Cc1ccc2c(c1)C1CCC2C1 (stereo unspecified)	> 100	> 100	12.5 (≈ 41.2 µM)	–	–	50 (≈ 165 µM)	100 (≈ 330 µM)	6.2 (≈ 20.4 µM)	–	–	–	–	–	–
CN(C/C=C/c1ccccc1)Cc1ccc2ccccc2c1	> 100	> 100	25 (≈ 87 µM)	–	–	50 (≈ 174 µM)	100 (≈ 348 µM)	25 (≈ 87 µM)	–	–	–	–	–	–
CN(C/C=C/c1ccccc1)CC1CCCc2ccccc21 (stereo unspecified)	> 100	> 100	50 (≈ 172 µM)	–	–	50 (≈ 172 µM)	100 (≈ 343 µM)	6.2 (≈ 21.3 µM)	–	–	–	–	–	–
C(=C\c1ccccc1)/COCc1cccc2ccccc12	> 100	> 100	> 100	–	–	> 100	> 100	3.1 (≈ 11.3 µM)	–	–	–	–	–	–
CN(C/C=C/c1cccc2ccccc12)Cc1ccccc1	> 100	> 100	100 (≈ 348 µM)	–	–	100 (≈ 348 µM)	100 (≈ 348 µM)	100 (≈ 348 µM)	–	–	–	–	–	–
CN(C/C=C/c1ccccc1)Cc1ccccc1	> 100	> 100	> 100	–	–	> 100	> 100	> 100	–	–	–	–	–	–
CCCC/C=C/C/C=C/CN(C)Cc1cccc2ccccc12	25 (≈ 81.3 µM)	1.6 (≈ 5.2 µM)	0.2 (≈ 0.65 µM)	69	100	0.1 (≈ 0.325 µM)	3.1 (≈ 10.1 µM)	–	40	0.05 (≈ 0.163 µM)	–	–	–	–
CN(C/C=C/c1ccccc1)C1CCCc2ccccc21 (stereo unspecified)	> 100	> 100	50 (≈ 180 µM)	–	–	50 (≈ 180 µM)	100 (≈ 360 µM)	12.5 (≈ 45.1 µM)	–	–	–	–	–	–
COc1ccc2c(CN(C)C/C=C/c3ccccc3)cccc2c1	> 100	> 100	12.5 (≈ 39.4 µM)	–	–	12.5 (≈ 39.4 µM)	25 (≈ 78.8 µM)	1.6 (≈ 5.04 µM)	–	–	–	–	–	–
CN(C/C=C/Cc1ccccc1)Cc1cccc2ccccc12	> 100	> 100	50 (≈ 166 µM)	–	–	50 (≈ 166 µM)	> 100	50 (≈ 166 µM)	–	–	–	–	–	–
CN(C/C=C/c1ccccc1)CCc1cccc2ccccc12	100 (≈ 332 µM)	50 (≈ 166 µM)	25 (≈ 82.9 µM)	–	–	50 (≈ 166 µM)	25 (≈ 82.9 µM)	12.5 (≈ 41.5 µM)	–	–	–	–	–	–
CN(C/C=C/c1ccccc1)Cc1c(O)ccc2ccccc12	> 100	> 100	50 (≈ 165 µM)	–	–	50 (≈ 165 µM)	100 (≈ 330 µM)	25 (≈ 82.4 µM)	–	–	–	–	–	–
CN(C/C=C/c1ccccc1)c1cccc2ccccc12	> 100	> 100	> 100	–	–	> 100	> 100	6.2 (≈ 22.7 µM)	–	–	–	–	–	–
CN(CC/C=C/c1ccccc1)Cc1cccc2ccccc12	100 (≈ 332 µM)	> 100	6.2 (≈ 20.6 µM)	–	–	3.1 (≈ 10.3 µM)	100 (≈ 332 µM)	3.1 (≈ 10.3 µM)	–	–	–	–	–	–
CN(C/C=C/C(=O)O)Cc1cccc2ccccc12	< 100	< 100	< 100	–	–	< 100	< 100	< 100	–	–	–	–	–	–
CN(CCCc1ccccc1)Cc1cccc2ccccc12	> 100	> 100	> 100	–	–	> 100	> 100	12.5 (≈ 43.2 µM)	–	–	–	–	–	–
CN(C/C=C/c1ccccc1)Cc1ccc(Cl)c2ccccc12	> 100	1.6 (≈ 4.97 µM)	0.1 (≈ 0.311 µM)	44	88	0.1 (≈ 0.311 µM)	3.1 (≈ 9.63 µM)	0.05 (≈ 0.155 µM)	–	–	18	–	–	–
Cc1ccc(CN(C)C/C=C/c2ccccc2)c2ccccc12	> 100	12.5 (≈ 41.5 µM)	0.2 (≈ 0.663 µM)	–	–	0.4 (≈ 1.33 µM)	3.1 (≈ 10.3 µM)	0.1 (≈ 0.332 µM)	–	–	–	–	–	–
CN(C/C=C/c1ccccc1F)Cc1cccc2ccccc12	100 (≈ 327 µM)	12.5 (≈ 40.9 µM)	≤ 1.6	59	94	≤ 1.6	6.25 (≈ 20.5 µM)	–	–	–	0	≤ 1.6	–	–
CN(C/C=C/C(=O)OCc1ccccc1)Cc1cccc2ccccc12	> 100	> 100	< 1.6	–	–	< 1.6	12.5 (≈ 36.2 µM)	–	–	< 1.6	0	–	0	8
CN(C/C=C/C1=CCCCCC1)Cc1cccc2ccccc12	25 (≈ 81.8 µM)	1.6 (≈ 5.24 µM)	0.1 (≈ 0.327 µM)	85	100	0.05 (≈ 0.164 µM)	0.8 (≈ 2.62 µM)	–	–	0.05 (≈ 0.164 µM)	29	–	–	–
CN(C/C=C\c1ccccc1)Cc1cccc2ccccc12	25 (≈ 87 µM)	3.1 (≈ 10.8 µM)	0.2 (≈ 0.696 µM)	47	100	0.2 (≈ 0.696 µM)	3.1 (≈ 10.8 µM)	–	–	0.1 (≈ 0.348 µM)	34	–	–	–
CN(C/C=C/c1ccccc1)CC1=CCc2ccccc21	> 100	> 100	12.5 (≈ 45.4 µM)	–	–	3.1 (≈ 11.3 µM)	> 100	1.6 (≈ 5.81 µM)	–	–	–	–	–	–
CN(C/C=C/c1ccsc1)Cc1cccc2ccccc12	50 (≈ 170 µM)	6.2 (≈ 21.1 µM)	0.1 (≈ 0.341 µM)	47	100	0.2 (≈ 0.682 µM)	3.1 (≈ 10.6 µM)	–	–	0.1 (≈ 0.341 µM)	7	–	–	–
CC(c1cccc2ccccc12)N(C)C/C=C/c1ccccc1 (stereo unspecified)	50 (≈ 166 µM)	3.1 (≈ 10.3 µM)	0.2 (≈ 0.663 µM)	75	100	0.4 (≈ 1.33 µM)	3.1 (≈ 10.3 µM)	–	–	0.1 (≈ 0.332 µM)	15	–	–	–
CN(C/C=C/CCc1ccccc1)Cc1cccc2ccccc12	> 100	> 100	12.5 (≈ 39.6 µM)	–	–	12.5 (≈ 39.6 µM)	> 100	1.6 (≈ 5.07 µM)	–	–	–	–	–	–
CN(C/C=C/c1ccccc1)Cc1cn(C)c2ccccc12	> 100	25 (≈ 86.1 µM)	≤ 1.6	0	88	≤ 1.6	≤ 1.6	–	–	≤ 1.6	0	–	–	–
CCCCCOC(=O)/C=C/CN(C)Cc1cccc2ccccc12	50 (≈ 154 µM)	25 (≈ 76.8 µM)	< 1.6	0	10	< 1.6	< 1.6	–	–	< 1.6	0	–	–	–
